Results published in patent US6531289B1, “Regulated gene expression in yeast and method of use” (Anadys Pharmaceuticals, Inc., priority 1997, dated 2003).

What was measured:
[1] = tested on: CTY145; conditions: CTY145, after 16 hours of growth
Description: (§1) For assaying the effects of copper ions on recombinant yeast strains, wild type and recombinant strains are grown in 5 ml of CSM media on a roller drum incubation apparatus at 30° C. for 18 to 20 hours. Cultures are diluted to an A600(absorbance of light at 600 nm) of about 0.02 in 5 ml CSM media without or with various concentrations of CuSO4 (10 μM, 50 μM, 100 μM, 250 μM, 1 mM and 2 mM) for 18 to 20 hours. The A600 of the various samples is read and recorded.
(§2) The copper sensitivity of yeast strain CTY145 was compared with that of ZMY60 by growing each strain in the presence of increasing amounts of added copper and measuring cell number at increasing times.

[2] = tested on: ZMY60; conditions: ZMY60, after 16 hours of growth
Description: as §1, §2

[3] = tested on: copper regulated CHS3 strain; assay: Drug sensitivity profiling, 96 well copper sulfate x compound dilution plate; type: cell-based, S. cerevisiae; conditions: CHS3 copper regulated control, 48 hours at 37° C.
Description: (§3) In one embodiment, such drug sensitivity is analyzed utilizing the copper regulated strains of the invention according to the following non-limiting method. In a single 96 well assay plate, a serial dilution of copper sulfate is created from right to left. On the same plate a serial dilution of compound is created along the opposite axis to give the final compound and copper concentrations shown in FIG. 12. Each well is inoculated with 10^3 cells ml^−1. Growth is scored by eye after 48 hours incubation at 37° C. As the copper concentration is increased, the level of target expressed is reduced. Consequently, inhibition of growth should occur at a lower compound concentration (FIG. 13, panel a). […] (FIG. 13, panel c).
(§4) In a single 96 well assay plate, a serial dilution of copper sulfate was created from right to left. On the same plate a serial dilution of compound was created along the opposite axis to give the final compound and copper concentrations. Each well was inoculated with 10^3 cells/mL. Yeast cell growth was scored by eye after 48 hours incubation at 37° C.
(§5) Plates were setup as described above and inoculated with wild-type, copper regulated ALG7 and copper regulated CHS3 strains. CHS3 encodes chitin synthase and provides a second control. Following 48 hours incubation at 37° C., plates were examined to assess growth (FIG. 16).

[4] = tested on: copper regulated ALG7 strain; assay: as above; type: cell-based, S. cerevisiae; conditions: ALG7 copper regulated cells, 48 hours at 37° C., growth scored by eye
Description: as §3, §4, §5

[5] = tested on: wild-type strain; assay: as above; type: cell-based, S. cerevisiae; conditions: wild type control, 48 hours at 37° C.
Description: as §3, §4, §5

[6] = tested on: ALG7; conditions: Kukuruzinska et al. 1995; cited from earlier work
[7] = tested on: ALG7/alg7 heterozygous diploid S. cerevisiae strain; conditions: Giaever et al.; cited from earlier work

Compound	highest concentration of copper at which the growth rate was maintained [1] [mM]	highest concentration of copper at which the log-phase growth rate was maintained unaffected [2] [μM]	sensitivity to compound as the copper concentration was increased [3]	sensitivity to compound as the copper concentration was increased [4]	sensitivity to compound as the copper concentration was increased [5]	sensitivity to tunicamycin on downregulation of ALG7 expression [6]	sensitivity of ALG7/alg7 heterozygous diploid strain [7]
O=S(=O)([O-])[O-].[Cu+2] [copper, copper sulfate]	1	250					
tunicamycin			No increase in sensitivity	increased sensitivity	No increase in sensitivity	hypersensitivity	increased sensitivity
